Reference: ChEMBL document CHEMBL1909046, “DrugMatrix in vitro pharmacology data”

Columns and labels:
[1] = target: T1, Muscarinic acetylcholine receptor M5 (Homo sapiens, UniProt P08912); type: cell membranes, CHO-K1, Membrane; also: in other assays of this panel Not Active means under 50% inhibition at 10 µM
T1 sequence (P08912 whole entry): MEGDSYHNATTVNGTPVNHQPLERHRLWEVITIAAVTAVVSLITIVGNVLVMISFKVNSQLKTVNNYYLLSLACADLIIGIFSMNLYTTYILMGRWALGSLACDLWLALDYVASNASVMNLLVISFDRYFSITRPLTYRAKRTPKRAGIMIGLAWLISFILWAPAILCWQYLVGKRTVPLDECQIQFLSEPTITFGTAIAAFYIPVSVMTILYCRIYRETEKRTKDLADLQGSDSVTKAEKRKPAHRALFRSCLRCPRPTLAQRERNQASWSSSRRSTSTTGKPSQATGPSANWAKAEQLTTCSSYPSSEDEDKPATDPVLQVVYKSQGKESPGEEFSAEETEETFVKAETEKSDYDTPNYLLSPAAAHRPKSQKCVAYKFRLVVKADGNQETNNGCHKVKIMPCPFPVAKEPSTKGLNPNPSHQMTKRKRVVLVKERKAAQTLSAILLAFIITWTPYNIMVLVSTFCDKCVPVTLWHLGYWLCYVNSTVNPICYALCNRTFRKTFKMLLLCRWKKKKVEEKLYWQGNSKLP

[2] = target: Melanocortin receptor 4 (Homo sapiens, UniProt P32245); type: cell membranes, HEK293, Membrane; details: hek293; also: in other assays of this panel Not Active means under 50% inhibition at 10 µM
Sequence of Melanocortin receptor 4 (P32245 whole entry): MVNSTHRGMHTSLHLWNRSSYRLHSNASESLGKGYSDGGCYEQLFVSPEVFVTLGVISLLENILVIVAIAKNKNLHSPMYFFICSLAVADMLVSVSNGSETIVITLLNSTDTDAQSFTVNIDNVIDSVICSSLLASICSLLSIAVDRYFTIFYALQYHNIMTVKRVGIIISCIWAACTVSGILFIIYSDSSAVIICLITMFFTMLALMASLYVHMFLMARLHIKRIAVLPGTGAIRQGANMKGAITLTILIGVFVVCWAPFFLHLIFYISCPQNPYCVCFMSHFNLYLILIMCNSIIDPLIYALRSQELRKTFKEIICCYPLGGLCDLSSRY

[3] = target: Tyrosine-protein kinase Lck (Homo sapiens, UniProt P06239); assay: DRUGMATRIX: Protein Tyrosine Kinase, LCK enzyme inhibition (substrate: Poly(Glu:Tyr)); type: cell-based, Insect cells; details: insect cells; Not Active = under 50% inhibition at 10 µM
Sequence of Tyrosine-protein kinase Lck (P06239 whole entry): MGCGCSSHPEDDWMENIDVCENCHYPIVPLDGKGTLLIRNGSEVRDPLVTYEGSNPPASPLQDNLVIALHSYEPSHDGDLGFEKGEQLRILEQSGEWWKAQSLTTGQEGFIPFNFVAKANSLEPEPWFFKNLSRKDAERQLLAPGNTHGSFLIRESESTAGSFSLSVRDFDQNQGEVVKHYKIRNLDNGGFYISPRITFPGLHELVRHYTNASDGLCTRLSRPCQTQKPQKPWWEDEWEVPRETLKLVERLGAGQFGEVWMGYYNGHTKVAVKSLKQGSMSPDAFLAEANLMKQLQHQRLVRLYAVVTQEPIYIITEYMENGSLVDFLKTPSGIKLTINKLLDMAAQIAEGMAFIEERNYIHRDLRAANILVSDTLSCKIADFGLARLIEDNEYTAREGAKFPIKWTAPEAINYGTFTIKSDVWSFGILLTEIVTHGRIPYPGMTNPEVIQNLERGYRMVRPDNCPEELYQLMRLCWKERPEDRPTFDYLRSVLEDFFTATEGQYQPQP

[4] = target: T2, Muscarinic acetylcholine receptor M4 (Homo sapiens, UniProt P08173); type: cell membranes, CHO-K1, Membrane; also: in other assays of this panel Not Active means under 50% inhibition at 10 µM
T2 sequence (P08173 whole entry): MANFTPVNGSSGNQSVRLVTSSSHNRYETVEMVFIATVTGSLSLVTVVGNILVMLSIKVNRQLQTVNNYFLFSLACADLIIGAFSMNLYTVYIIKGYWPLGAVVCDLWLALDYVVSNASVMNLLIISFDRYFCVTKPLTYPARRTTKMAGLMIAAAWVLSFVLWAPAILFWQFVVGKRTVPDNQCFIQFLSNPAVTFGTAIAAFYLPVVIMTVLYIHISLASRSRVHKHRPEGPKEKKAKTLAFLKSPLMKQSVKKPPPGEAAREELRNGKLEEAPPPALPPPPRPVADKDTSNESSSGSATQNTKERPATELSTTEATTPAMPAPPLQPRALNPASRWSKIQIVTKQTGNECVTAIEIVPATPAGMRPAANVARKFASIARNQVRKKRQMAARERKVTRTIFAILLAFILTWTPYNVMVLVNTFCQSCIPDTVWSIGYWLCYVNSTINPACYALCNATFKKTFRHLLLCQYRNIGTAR

[5] = target: Protein kinase C alpha type (Homo sapiens, UniProt P17252); type: cell-based; details: sf9;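 also: inhibition of PKCalpha kinase activity measured in an enzyme assay with histone as the phosphorylation substrate; in other assays of this panel Not Active means under 50% inhibition at 10 µM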

O=C(c1ccccc1C(F)(F)F)N1CCC(Cc2ccccc2)CC1
IC50 ([1]; cho-k1): Not Active
IC50 [2]: Not Active
IC50 [3]: Not Active
IC50 ([4]; cho-k1): Not Active
IC50 [5]: Not Active

O=C/C=C/c1ccccc1
IC50 ([1]; cho-k1): Not Active
IC50 [2]: Not Active
IC50 [3]: Not Active
IC50 ([4]; cho-k1): Not Active
IC50 [5]: Not Active

Nc1ccc2c3c(cccc13)C(=O)NC2=O
IC50 ([1]; cho-k1): Not Active
IC50 [2]: Not Active
IC50 [3]: Not Active
IC50 ([4]; cho-k1): Not Active
IC50 [5]: Not Active

COc1ccc(C(=O)N2CCCC2=O)cc1
IC50 ([1]; cho-k1): Not Active
IC50 [2]: Not Active
IC50 [3]: Not Active
IC50 ([4]; cho-k1): Not Active
IC50 [5]: Not Active

O=c1cnn([C@@H]2O[C@H](CO)[C@@H](O)[C@H]2O)c(=O)[nH]1 [6-AZAURIDINE]
IC50 ([1]; cho-k1): Not Active
IC50 [2]: Not Active
IC50 [3]: Not Active
IC50 ([4]; cho-k1): Not Active
IC50 [5]: Not Active

CC[C@H](C)[C@H]1O[C@]2(C=C[C@@H]1C)C[C@@H]1C[C@@H](C/C=C(\C)[C@@H](O[C@H]3C[C@H](OC)[C@@H](O[C@H]4C[C@H](OC)[C@@H](O)[C@H](C)O4)[C@H](C)O3)[C@@H](C)/C=C/C=C3\CO[C@@H]4[C@H](O)C(C)=C[C@@H](C(=O)O1)[C@]34O)O2.CO[C@H]1C[C@H](O[C@H]2[C@H](C)O[C@@H](O[C@@H]3/C(C)=C/C[C@@H]4C[C@@H](C[C@]5(C=C[C@H](C)[C@@H](C(C)C)O5)O4)OC(=O)[C@@H]4C=C(C)[C@@H](O)[C@H]5OC/C(=C\C=C\[C@@H]3C)[C@]54O)C[C@@H]2OC)O[C@@H](C)[C@@H]1O [ABAMECTIN]
IC50 ([1]; cho-k1): Not Active
IC50 [2]: Not Active
IC50 [3]: Not Active
IC50 ([4]; cho-k1): Not Active
IC50 [5]: Not Active

NCCCC(O)(P(=O)(O)O)P(=O)(O)O [ALENDRONIC ACID]
IC50 ([1]; cho-k1): Not Active
IC50 [2]: Not Active
IC50 [3]: Not Active
IC50 ([4]; cho-k1): Not Active
IC50 [5]: Not Active

Cc1nnc2n1-c1ccc(Cl)cc1C(c1ccccc1)=NC2 [ALPRAZOLAM]
IC50 ([1]; cho-k1): Not Active
IC50 [2]: Not Active
IC50 [3]: Not Active
IC50 ([4]; cho-k1): Not Active
Ki [5]: Not Active

Cn1c(=O)c2[nH]cnc2n(C)c1=O.Cn1c(=O)c2[nH]cnc2n(C)c1=O.NCCN [AMINOPHYLLINE]
IC50 ([1]; cho-k1): Not Active
IC50 [2]: Not Active
IC50 [3]: Not Active
IC50 ([4]; cho-k1): Not Active
IC50 [5]: Not Active

CCC1(CCC(C)C)C(=O)NC(=O)NC1=O [AMOBARBITAL]
IC50 ([1]; cho-k1): Not Active
IC50 [2]: Not Active
IC50 [3]: Not Active
IC50 ([4]; cho-k1): Not Active
IC50 [5]: Not Active

CC1(C)S[C@@H]2[C@H](NC(=O)[C@H](N)c3ccccc3)C(=O)N2[C@H]1C(=O)O [AMPICILLIN]
IC50 ([1]; cho-k1): Not Active
IC50 [2]: Not Active
IC50 [3]: Not Active
IC50 ([4]; cho-k1): Not Active
IC50 [5]: Not Active

COc1ccc(C2C(=O)c3ccccc3C2=O)cc1 [ANISINDIONE]
IC50 ([1]; cho-k1): Not Active
IC50 [2]: Not Active
IC50 [3]: Not Active
IC50 ([4]; cho-k1): Not Active
IC50 [5]: Not Active

O=C1O[C@H]([C@@H](O)CO)C(O)=C1O [ASCORBIC ACID]
IC50 ([1]; cho-k1): Not Active
IC50 [2]: Not Active
IC50 [3]: Not Active
IC50 ([4]; cho-k1): Not Active
IC50 [5]: Not Active

CN1[C@@H]2CC[C@H]1C[C@@H](OC(=O)C(CO)c1ccccc1)C2 (some centres undefined) [ATROPINE]
IC50 [2]: Not Active
IC50 [3]: Not Active
IC50 [5]: Not Active

CC(C(=O)O)c1ccc2oc(-c3ccc(Cl)cc3)nc2c1 (centres undefined) [BENOXAPROFEN]
IC50 ([1]; cho-k1): Not Active
IC50 [2]: Not Active
IC50 [3]: Not Active
IC50 ([4]; cho-k1): Not Active
IC50 [5]: Not Active

COc1ccc2cc3[n+](cc2c1OC)CCc1cc2c(cc1-3)OCO2.[Cl-] [BERBERINE CHLORIDE]
IC50 ([1]; cho-k1): Not Active
IC50 [2]: Not Active
IC50 [3]: Not Active
IC50 ([4]; cho-k1): Not Active
IC50 [5]: Not Active

O=C(O)CCNC(=O)c1ccccc1 [BETAMIPRON]
IC50 ([1]; cho-k1): Not Active
IC50 [2]: Not Active
IC50 [3]: Not Active
IC50 ([4]; cho-k1): Not Active
IC50 [5]: Not Active

CC(=O)Oc1ccc(C(c2ccc(OC(C)=O)cc2)c2ccccn2)cc1 [BISACODYL]
IC50 ([1]; cho-k1): Not Active
IC50 [2]: Not Active
IC50 [3]: Not Active
IC50 ([4]; cho-k1): Not Active
IC50 [5]: Not Active

Cc1cc2c(OCC(CNC(C)(C)C)OC(=O)c3ccccc3)cccc2[nH]1 (centres undefined) [BOPINDOLOL]
IC50 ([1]; cho-k1): Not Active
IC50 [2]: Not Active
IC50 [3]: Not Active
IC50 ([4]; cho-k1): Not Active
IC50 [5]: Not Active

Brc1c(NC2=NCCN2)ccc2nccnc12 [BRIMONIDINE]
IC50 ([1]; cho-k1): Not Active
IC50 [2]: Not Active
IC50 [3]: Not Active
IC50 ([4]; cho-k1): Not Active
IC50 [5]: Not Active

CN(C)[C@@H]1C(O)=C(C(N)=O)C(=O)[C@@]2(O)C(O)=C3C(=O)c4c(O)ccc(Cl)c4[C@@](C)(O)[C@H]3C[C@@H]12 [CHLORTETRACYCLINE]
IC50 ([1]; cho-k1): Not Active
IC50 [2]: Not Active
IC50 [3]: Not Active
IC50 ([4]; cho-k1): Not Active
IC50 [5]: Not Active

CN/C(=N\CCSCc1nc[nH]c1C)NC#N [CIMETIDINE]
IC50 ([1]; cho-k1): Not Active
IC50 [2]: Not Active
IC50 [3]: Not Active
IC50 ([4]; cho-k1): Not Active
IC50 [5]: Not Active

COc1cc(N)c(Cl)cc1C(=O)NC1CCN(CCCOc2ccc(F)cc2)CC1OC (centres undefined) [CISAPRIDE]
IC50 ([1]; cho-k1): Not Active
IC50 [2]: Not Active
IC50 [3]: Not Active
IC50 ([4]; cho-k1): Not Active
IC50 [5]: Not Active

CCC(=O)O[C@]1(C(=O)CCl)[C@@H](C)C[C@H]2[C@@H]3CCC4=CC(=O)C=C[C@]4(C)[C@@]3(F)[C@@H](O)C[C@@]21C [CLOBETASOL PROPIONATE]
IC50 ([1]; cho-k1): Not Active
IC50 [2]: Not Active
IC50 [3]: Not Active
IC50 ([4]; cho-k1): Not Active
IC50 [5]: Not Active

O=C1CN=C(c2ccccc2Cl)c2cc([N+](=O)[O-])ccc2N1 [CLONAZEPAM]
IC50 ([1]; cho-k1): Not Active
IC50 [2]: Not Active
IC50 [3]: Not Active
IC50 ([4]; cho-k1): Not Active
IC50 [5]: Not Active

Nc1ccn([C@@H]2O[C@H](CO)[C@@H](O)[C@@H]2O)c(=O)n1 [CYTARABINE]
IC50 ([1]; cho-k1): Not Active
IC50 [2]: Not Active
IC50 [3]: Not Active
IC50 ([4]; cho-k1): Not Active
IC50 [5]: Not Active

C[C@@H]1C[C@H]2[C@@H]3CCC4=CC(=O)C=C[C@]4(C)[C@@]3(F)[C@@H](O)C[C@]2(C)[C@H]1C(=O)CO [DESOXIMETASONE]
IC50 ([1]; cho-k1): Not Active
IC50 [2]: Not Active
IC50 [3]: Not Active
IC50 ([4]; cho-k1): Not Active
IC50 [5]: Not Active

C[C@@H]1C[C@H]2[C@@H]3CCC4=CC(=O)C=C[C@]4(C)[C@@]3(F)[C@@H](O)C[C@]2(C)[C@@]1(O)C(=O)CO [DEXAMETHASONE]
IC50 ([1]; cho-k1): Not Active
IC50 [2]: Not Active
IC50 [3]: Not Active
IC50 ([4]; cho-k1): Not Active
IC50 [5]: Not Active

CN(C)CC[C@@H](c1ccc(Cl)cc1)c1ccccn1 [DEXCHLORPHENIRAMINE]
IC50 ([1]; read-out: IC50): 1040 nM
Ki ([1]; read-out: Ki): 749 nM
IC50 [2]: Not Active
IC50 [3]: Not Active
IC50 ([4]; read-out: IC50): 1980 nM
Ki ([4]; read-out: Ki): 276 nM
IC50 [5]: Not Active

O=c1cc(N2CCOCC2)oc2c(-c3ccccc3)cccc12 [LY-294002]
IC50 ([1]; cho-k1): Not Active
IC50 [2]: Not Active
IC50 ([4]; cho-k1): Not Active
IC50 [5]: Not Active
